Source: PubChem BioAssay AID1918945 (Molecular Pharmacology Branch, DTP, NCI, 2023)

Test system: 883617-216-R-J1-PDC complex spheroid viability
Experiment: Anticancer human tumor 883617-216-R-J1-PDC patient-derived bladder carcinoma cell line growth inhibition
Details: for IC50: curve of first compound; for viability, T/C: stronger effect = lower value
Outline: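 Multicellular complex spheroids of tumor cells with human endothelial cells (HUVEC) and mesenchymal stem cells; the LSD1 inhibitor iadademstat was combined with standard-of-care or investigational agents. Top concentration at or near clinical Cmax, half-log dilutions; final DMSO ≤0.25%.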
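Also: exposure lasted seven days after three days of spheroid growth.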
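For viability, T/C in this document: 100% = DMSO vehicle control luminescence.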

CC(C)CC(NC(=O)C(Cc1ccccc1)NC(=O)c1cnccn1)B(O)O (stereo not given) + NC1CC1c1ccc(-c2cccc(O)c2)cc1
IC50 (second compound 0.1 µM): 0.874 nM
IC50 (second compound 0.316 µM): 0.885 nM
IC50 (second compound 1 µM): 0.949 nM
IC50 (second compound 3.16 µM): 0.798 nM
IC50 (second compound 10 µM): 0.581 nM
viability, T/C (second compound 0.1 µM, first compound 0.000316 µM): 104%
viability, T/C (second compound 0.1 µM, first compound 0.001 µM): 42.8%
viability, T/C (second compound 0.1 µM, first compound 0.00316 µM): 0.61%
viability, T/C (second compound 0.1 µM, first compound 0.01 µM): 0.03%
viability, T/C (second compound 0.1 µM, first compound 0.0316 µM): 0.03%
viability, T/C (second compound 0.1 µM, first compound 0.1 µM): 0.12%
viability, T/C (second compound 0.316 µM, first compound 0.000316 µM): 108%
viability, T/C (second compound 0.316 µM, first compound 0.001 µM): 43.1%
viability, T/C (second compound 0.316 µM, first compound 0.00316 µM): 0.43%
viability, T/C (second compound 0.316 µM, first compound 0.01 µM): 0.02%
viability, T/C (second compound 0.316 µM, first compound 0.0316 µM): 0.02%
viability, T/C (second compound 0.316 µM, first compound 0.1 µM): 0.12%
viability, T/C (second compound 1 µM, first compound 0.000316 µM): 124%
viability, T/C (second compound 1 µM, first compound 0.001 µM): 46.5%
viability, T/C (second compound 1 µM, first compound 0.00316 µM): 0.86%
viability, T/C (second compound 1 µM, first compound 0.01 µM): 0.02%
viability, T/C (second compound 1 µM, first compound 0.0316 µM): 0.02%
viability, T/C (second compound 1 µM, first compound 0.1 µM): 0.56%
viability, T/C (second compound 3.16 µM, first compound 0.000316 µM): 108%
viability, T/C (second compound 3.16 µM, first compound 0.001 µM): 35.9%
viability, T/C (second compound 3.16 µM, first compound 0.00316 µM): 1.57%
viability, T/C (second compound 3.16 µM, first compound 0.01 µM): 0.04%
viability, T/C (second compound 3.16 µM, first compound 0.0316 µM): 0.04%
viability, T/C (second compound 3.16 µM, first compound 0.1 µM): 0.3%
viability, T/C (second compound 10 µM, first compound 0.000316 µM): 82.5%
viability, T/C (second compound 10 µM, first compound 0.001 µM): 21%
viability, T/C (second compound 10 µM, first compound 0.00316 µM): 0.27%
viability, T/C (second compound 10 µM, first compound 0.01 µM): 0.21%
viability, T/C (second compound 10 µM, first compound 0.0316 µM): 0.61%
viability, T/C (second compound 10 µM, first compound 0.1 µM): 0.22%

COc1cc(C2c3cc4c(cc3C(OC3OC5COC(C)OC5C(O)C3O)C3COC(=O)C23)OCO4)cc(OC)c1O (stereo not given) + NC1CC1c1ccc(-c2cccc(O)c2)cc1
IC50 (second compound 0.1 µM): 163 nM
IC50 (second compound 0.316 µM): 156 nM
IC50 (second compound 1 µM): 92.8 nM
IC50 (second compound 3.16 µM): 76.5 nM
IC50 (second compound 10 µM): 58 nM
viability, T/C (second compound 0.1 µM, first compound 0.00949 µM): 99.3%
viability, T/C (second compound 0.1 µM, first compound 0.03 µM): 73%
viability, T/C (second compound 0.1 µM, first compound 0.0949 µM): 56.1%
viability, T/C (second compound 0.1 µM, first compound 0.3 µM): 43.9%
viability, T/C (second compound 0.1 µM, first compound 0.949 µM): 35.4%
viability, T/C (second compound 0.1 µM, first compound 3 µM): 31.6%
viability, T/C (second compound 0.316 µM, first compound 0.00949 µM): 103%
viability, T/C (second compound 0.316 µM, first compound 0.03 µM): 79.6%
viability, T/C (second compound 0.316 µM, first compound 0.0949 µM): 55.6%
viability, T/C (second compound 0.316 µM, first compound 0.3 µM): 41.9%
viability, T/C (second compound 0.316 µM, first compound 0.949 µM): 39.8%
viability, T/C (second compound 0.316 µM, first compound 3 µM): 34.9%
viability, T/C (second compound 1 µM, first compound 0.00949 µM): 106%
viability, T/C (second compound 1 µM, first compound 0.03 µM): 81%
viability, T/C (second compound 1 µM, first compound 0.0949 µM): 48.8%
viability, T/C (second compound 1 µM, first compound 0.3 µM): 38.8%
viability, T/C (second compound 1 µM, first compound 0.949 µM): 41.3%
viability, T/C (second compound 1 µM, first compound 3 µM): 31.4%
viability, T/C (second compound 3.16 µM, first compound 0.00949 µM): 90.6%
viability, T/C (second compound 3.16 µM, first compound 0.03 µM): 67.7%
viability, T/C (second compound 3.16 µM, first compound 0.0949 µM): 43.7%
viability, T/C (second compound 3.16 µM, first compound 0.3 µM): 37.7%
viability, T/C (second compound 3.16 µM, first compound 0.949 µM): 33.5%
viability, T/C (second compound 3.16 µM, first compound 3 µM): 27.9%
viability, T/C (second compound 10 µM, first compound 0.00949 µM): 82.4%
viability, T/C (second compound 10 µM, first compound 0.03 µM): 59.5%
viability, T/C (second compound 10 µM, first compound 0.0949 µM): 37.4%
viability, T/C (second compound 10 µM, first compound 0.3 µM): 44.5%
viability, T/C (second compound 10 µM, first compound 0.949 µM): 31.9%
viability, T/C (second compound 10 µM, first compound 3 µM): 28.5%
